Results as given in patent US20090170762A1, “Treatment of Diabetes Related Obesity” (UUTech Limited, priority 2005, published 2009).
“Also recorded” adds a separate entry of the source. Ends that are not written are not given here.

Columns and labels:
[1] = system: BRIN-BD11 cells; assay: Insulin secretion from BRIN-BD11 cells; format: cell-based
Protocol: Tissue Culture. Chinese Hamster Lung (CHL) fibroblast cells stably transfected with the human GIP-R were cultured in DMEM tissue culture medium containing 10%. (v/v) fetal bovine serum, 1% (v/v) antibiotics (100 U/ml penicillin, 0.1 mg/ml streptomycin) (all from Gibco, Paisley, Strathclyde, Scotland). BRIN-BD11 cells were cultured in RPMI-1640 tissue culture medium containing 10% (v/v) fetal bovine serum, 1% (v/v) antibiotics (100 U/ml penicillin, 0.1 mg/ml streptomycin) and 11.1 mm glucose. The origin and secretory characteristics of these cells have been described in detail previously (McClenaghan, N. H. et al., 1996, Diabetes 45:1132-1140). The cells were maintained in sterile tissue culture flasks (Corning Glass Works, Sunderland, UK) at 37° C. in an atmosphere of 5% CO2 and 95% air using a LEEC incubator (Laboratory Technical Engineering, Nottingham, UK).
Methods. Insulin release from BRIN-BD11 cells was determined by use of cell monolayers as described previously (Gault, V. A. et al. 2002, Biochem. J. 367:913-920). In brief, BRIN-BD11 cells were seeded into 24-well plates (Nunc, Roskilde, Denmark) at a density of 1.5×10^5 cells per well and allowed to attach overnight in RPMI-1640 culture medium at 37° C. Acute tests for insulin secretion were preceded by 40 minutes pre-incubation at 37° C. in 1.0 ml Krebs Ringer Bicarbonate Buffer (KRBB, 115 mm NaCl, 4.7 mm KCl, 1.28 mm CaCl2, 1.2 mM MgSO4, 1.2 mm KH2PO4, 25 mM HEPES and 10 mm NaHCO3; pH 7.4 with NaOH) supplemented with 0.1% (w/v) BSA and 1.1 mM glucose. […] After 20 minutes incubation, the buffer was removed and used for measurement of insulin by radioimmunoassay (Flatt, P. R. and Bailey, C. J., 1981, Diabetologia 5:573-577).

[2] = system: ob/ob mice; assay: Daily (Pro3)GIP for 60 days in young ob/ob mice; format: in vivo, mouse
Protocol: Young obese diabetic (ob/ob) mice derived from the colony maintained at Aston University, UK (Bailey, C. J. et al., 1982, Int. J. Obes. 6:11-21) were used at 5-7 weeks of age. Normal lean control mice from the same colony were used in comparative experiments (See Example 6, below). Animals were age-matched, divided into groups and housed individually in an air-conditioned room at 22±2° C. with a 12 hours light:12 hours dark cycle (08:00-20:00 hours). Drinking water and a standard rodent maintenance diet (Trouw Nutrition, Cheshire, UK) were freely available. In a separate experiment, Swiss Tylers Original (TO) mice purchased from Harlan Ltd. (Bicester, UK) were used at 5-7 weeks of age. Animals were housed as for ob/ob mice and given drinking water ad libitum. Normal TO mice were allowed free access to fed high fat diet (45% fat, 20% protein, 35% carbohydrate, 26.15 MJ/kg), high carbohydrate diet (10% fat, 20% protein, 70% carbohydrate, 18.80 MJ/kg) (Special Diets Service, Witham, Essex, UK), cafeteria diet (corresponding to approximately 33% fat, 19% protein, 48% carbohydrate, 16.39 MJ/kg) or normal rodent maintenance diet (10% fat, 30% protein, 60% carbohydrate; 14.2 MJ/kg, Trouw Nutrition, Cheshire, UK). The cafeteria diet comprised 6 daily rotations of 2 palatable food items per day (2 from: tuna, peanut butter, crisps, chocolate biscuits, madera cake, chocolate, luncheon meat, sausages, corned beef, cheese, marzipan). All animal experiments were carried out in accordance with the UK Animals (Scientific Procedures) Act 1986.
Food intake and body weight were recorded daily while plasma glucose and insulin concentrations were monitored at intervals of 3-6 days. Whole blood for the measurement of glycated hemoglobin was taken on day 60. In addition, plasma samples for measurement of cholesterol, circulating triglycerides, HDL-cholesterol (HDL-C) and LDL-cholesterol (LDL-C) were taken on day 60. […] Mice fasted for 18 hours were used to examine the metabolic response to 15 minutes feeding on day 60. In a separate series, pancreatic tissues were excised at the end of the 60-day treatment period and processed for immunohistochemistry or measurement of insulin following extraction with 5 ml/g of ice-cold acid ethanol (750 ml ethanol, 235 ml water, 15 ml concentrated HCl). Blood samples taken from the cut tip of the tail vein of conscious mice at the times indicated in the Figures were immediately centrifuged using a Beckman microcentrifuge (Beckman instruments, UK) for 30 seconds at 13,000×g. The resulting plasma was then aliquoted into fresh Eppendorf tubes and stored at −20° C. prior to glucose and insulin determinations. Normal control mice from the same genetic background were used for comparative purposes. […] Body weights were recorded daily and blood for determination of glycated hemoglobin was collected at end of study period.
Plasma glucose was assayed by an automated glucose oxidase procedure (Stevens, J. F., 1971, Clin. Chem. Acta 32:199-201) using a Beckman Glucose Analyzer II (Beckman Instruments, Galway, Ireland). Plasma and pancreatic insulin were assayed by a modified dextran-coated charcoal radioimmunoassay (Flatt, P. R., Bailey, C. J., 1981, Diabetologia 20:573-577). Plasma triglyceride and cholesterol levels were measured using a Hitachi Automatic Analyser 912 (Boehringer Mannheim, Germany). Glycated hemoglobin was determined using a commercially available kit purchased from Chirus Ltd. (Watford, UK).
Results are expressed as mean±SEM. Data were compared using ANOVA, followed by a Student-Newman-Keuls post hoc test. Area under the curve (AUC) analyzes were calculated using the trapezoidal rule with baseline subtraction. P<0.05 was considered to be statistically significant.

[3] = system: adult ob/ob mice; conditions: daily 11 days (Gault 2005); cited from earlier work

Sequence: YAPGTFISDYSIAMDKIHQQDFVNWLLAQKGKKNDWKHNITQ [(Pro^3)GIP]
- Maximal insulin response (% GIP max) ([1]; BRIN-BD11 cells, 5.6 mm glucose, 20 min): 53 ± 5 % GIP max
- Insulin response in presence of 10^-7 M GIP (% GIP max) ([1]; BRIN-BD11 cells, 5.6 mm glucose, in presence of 10^-7 M native GIP): 64 ± 2 % GIP max
- effect on GIP-stimulated insulin secretion ([1]; in presence of GIP (10^-7 m)): significantly inhibited
- body weight gain ([2]; 5-7 weeks old ob/ob mice, standard diet, 60 days): progressive decrease in body weight gain
- plasma insulin levels after 15 minute feeding ([2]; 18 h fasted ob/ob mice, 60 days, vs saline): not significantly different
- plasma glucose responses to 15 minute feeding ([2]; 18 h fasted ob/ob mice, 60 days, 15, 30, 60 and 105 min): significantly lowered
- decrease in body weight ([2]; ob/ob mice, 25 nmol/kg/day i.p., 60 days, vs saline, did not reach significance): ~17%
- effect on food intake ([2]; ob/ob mice, 25 nmol/kg/day, 60 days, vs saline): no effect; also recorded: without changing food intake
- cholesterol levels ([2]; ob/ob mice, 60 days, vs saline): unaltered
- circulating triglyceride concentrations ([2]; ob/ob mice, 60 days, vs saline): significantly (P<0.05) reduced
- enhanced insulin sensitivity ([2]; ob/ob mice, 60 days, vs saline): 1.5 fold
- lowering of overall plasma glucose response to feeding ([2]; ob/ob mice, 60 days, vs saline): 1.7 fold
- lowering of overall plasma glucose response to intraperitoneal glucose load ([2]; ob/ob mice, 60 days, vs saline): 1.9 fold
- pancreatic insulin content ([2]; ob/ob mice, 60 days, vs saline): significantly (P<0.01) decreased
- pancreatic weight ([2]; ob/ob mice, 60 days, vs saline): no effect
- reduced pancreatic insulin content ([2]; ob/ob mice, 60 days, vs saline): 1.5 fold
- levels of LDL-C ([2]; ob/ob mice, 60 days, vs saline, LDL-C calculated by Friedewald equation): significantly reduced
- plasma glucose concentrations following intraperitoneal glucose ([2]; ob/ob mice, 60 days, 0, 15, 30 and 60 min after glucose 18 mmol/kg): significantly reduced
- plasma insulin concentrations following intraperitoneal glucose ([2]; ob/ob mice, 60 days, 15 min after glucose 18 mmol/kg): significantly (P<0.05) reduced
- hypoglycemic action of insulin (insulin sensitivity) ([2]; ob/ob mice, 60 days, insulin 50 U/kg i.p.): significantly (P<0.05) augmented
- overall glycaemic excursion and insulinotropic response to glucose together with native GIP ([2]; ob/ob mice, 60 days, native GIP 25 nmoles/kg): significant decrease
- glycated hemoglobin ([2]; ob/ob mice, after 60 days treatment): 4.1±0.1%
- non-fasting plasma glucose ([2]; ob/ob mice, day 14 to day 60, vs saline): significantly reduced
- non-fasting plasma insulin ([2]; ob/ob mice, day 44, vs saline): significantly lowered
- features of type 2 diabetes [3]: improved many of the characteristic features of type 2 diabetes
